Columns and labels:
barnyardgrass [1] = experiment: Test A pre-/postemergence herbicide test; type: in vivo, Echinochloa crus-galli
In short: (§1)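 Seeds in loam–sand blend received preemergence directed soil spray; separately, plants 2–10 cm at one- to two-leaf stage received postemergence spray, both with test chemicals in non-phytotoxic solvent with surfactant. After ~10 days in greenhouse, injury rated visually against untreated controls, 0 (no effect) to 100 (complete control).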

crabgrass, large = experiment: Test A pre-/postemergence herbicide test; type: in vivo, Digitaria sanguinalis
In short: as §1

giant foxtail = experiment: Test A pre-/postemergence herbicide test; type: in vivo, Setaria faberii
In short: as §1

morningglory = experiment: Test A pre-/postemergence herbicide test; type: in vivo, Ipomoea spp.
In short: as §1

pigweed = experiment: Test A pre-/postemergence herbicide test; type: in vivo, Amaranthus retroflexus
In short: as §1

velvetleaf = experiment: Test A pre-/postemergence herbicide test; type: in vivo, Abutilon theophrasti
In short: as §1

wheat = experiment: Test A pre-/postemergence herbicide test; type: in vivo, Triticum aestivum
In short: as §1

corn = experiment: Test A pre-/postemergence herbicide test; type: in vivo, Zea mays
In short: as §1

rice [2] = experiment: Test B flooded paddy test; type: in vivo, Oryza sativa; conditions: Flood, scale of 0 to 100 where 0 is no effect and 100 is complete control
In short: (§2)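 2-leaf plants; flood 3 cm over soil; compound into paddy water; depth held. Greenhouse 13–15 d. Visual rating vs controls, 0 (no effect) to 100 (complete control); dash = not tested.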

sedge, umbrella [3] = experiment: Test B flooded paddy test; type: in vivo, Cyperus difformis; conditions: Flood, scale of 0 to 100 where 0 is no effect and 100 is complete control
In short: as §2

ducksalad [4] = experiment: Test B flooded paddy test; type: in vivo, Heteranthera limosa; conditions: Flood, scale of 0 to 100 where 0 is no effect and 100 is complete control
In short: as §2

barnyardgrass [5] = experiment: Test B flooded paddy test; type: in vivo, Echinochloa crus-galli; conditions: Flood, scale of 0 to 100 where 0 is no effect and 100 is complete control
In short: as §2

rice [6] = experiment: Test C flooded paddy test; type: in vivo, Oryza sativa; conditions: Flood
In short: (§3)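 Visual ratings from 0, no effect, to 100, complete control, were made against untreated controls after 13–15 greenhouse days. Compounds had gone straight into paddy water 3 cm above the soil, kept at that depth, on 2-leaf-stage plants.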

sedge, umbrella [7] = experiment: Test C flooded paddy test; type: in vivo, Cyperus difformis; conditions: Flood
In short: as §3

ducksalad [8] = experiment: Test C flooded paddy test; type: in vivo, Heteranthera limosa; conditions: Flood
In short: as §3

barnyardgrass [9] = experiment: Test C flooded paddy test; type: in vivo, Echinochloa crus-galli; conditions: Flood
In short: as §3

kochia = experiment: Test A pre-/postemergence herbicide test; type: in vivo, Kochia scoparia; conditions: for Plant response rating, Kochia: 0 to 100 scale
In short: as §1

ragweed = experiment: Test A pre-/postemergence herbicide test; type: in vivo, Ambrosia elatior; conditions: for Plant response rating, Ragweed: 0 to 100 scale
In short: as §1

ryegrass, Italian = experiment: Test A pre-/postemergence herbicide test; type: in vivo, Lolium multiflorum; conditions: for Plant response rating, Ryegrass, Italian: 0 to 100 scale
In short: as §1

blackgrass = experiment: Test A postemergence herbicide test; type: in vivo, Alopecurus myosuroides
In short: (§4)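 Blackgrass and galium grown in pots of loam soil–sand blend, treated postemergence at 2–10 cm height, one- to two-leaf stage. Plants kept in greenhouse ~10 days, then visually rated for injury against untreated controls on a 0–100 scale (0 no effect, 100 complete control).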

galium = experiment: Test A postemergence herbicide test; type: in vivo, Galium aparine
In short: as §4

[10] = Postemergence, 125 g ai/ha, 0 to 100 scale, 0 no effect, 100 complete control
[11] = Postemergence, 500 g ai/ha, 0 to 100 scale (0 no effect, 100 complete control)
[12] = Preemergence, 125 g ai/ha, visual rating on 0 to 100 scale (0 no effect, 100 complete control)
[13] = preemergence, 500 g ai/ha, 0 to 100 scale
[14] = 125 g ai/ha, scale of 0 to 100 where 0 is no effect and 100 is complete control, 13 to 15 days
[15] = 125 g ai/ha, visual rating, 0 to 100 scale, 0 no effect, 100 complete control, approximately 10 days, preemergence
[16] = Postemergence, 125 g ai/ha, 0 to 100 scale, 0 is no effect, 100 is complete control
[17] = preemergence, 500 g ai/ha, 0 to 100 scale, 0 is no effect and 100 is complete control
[18] = 125 g ai/ha, visual rating, 0 no effect, 100 complete control, approximately 10 days, preemergence
[19] = Postemergence, 125 g ai/ha, 0 is no effect, 100 is complete control
[20] = preemergence, 500 g ai/ha, 0 is no effect and 100 is complete control
[21] = 125 g ai/ha, 0 to 100 scale, 0 is no effect, 100 is complete control
[22] = 250 g ai/ha, scale of 0 to 100 where 0 is no effect and 100 is complete control, 13 to 15 days

O=C1NCC(c2ccc(Cl)cc2)C1C(=O)Nc1ccccc1F (racemic) [Compound 87]
Plant response rating, Barnyardgrass (barnyardgrass [1]; [10]): 50 | Plant response rating, Barnyardgrass (barnyardgrass [1]; [11]): 80 | Barnyardgrass plant response rating (barnyardgrass [1]; [12]): 20 | Plant response rating, Barnyardgrass (barnyardgrass [1]; preemergence, 500 g ai/ha, 0 to 100 scale (0 no effect, 100 complete control)): 80 | Plant response rating, Crabgrass, Large (crabgrass, large; [10]): 60 | Plant response rating, Crabgrass, Large (crabgrass, large; [11]): 80 | Crabgrass, Large plant response rating (crabgrass, large; [12]): 80 | Plant response rating, Crabgrass, Large (crabgrass, large; [13]): 90 | Plant response rating, Foxtail, Giant (giant foxtail; [10]): 50 | Plant response rating, Foxtail, Giant (giant foxtail; [11]): 80 | Foxtail, Giant plant response rating (giant foxtail; [12]): 60 | Plant response rating, Foxtail, Giant (giant foxtail; [13]): 90 | Plant response rating, Morningglory (morningglory; [10]): 0 | Plant response rating, Morningglory (morningglory; [11]): 10 | Morningglory plant response rating (morningglory; [12]): 0 | Plant response rating, Morningglory (morningglory; [13]): 0 | Plant response rating, Pigweed (pigweed; [10]): 0 | Plant response rating, Pigweed (pigweed; [11]): 20 | Pigweed plant response rating (pigweed; [12]): 0 | Plant response rating, Pigweed (pigweed; [13]): 0 | Plant response rating, Velvetleaf (velvetleaf; [10]): 0 | Plant response rating, Velvetleaf (velvetleaf; [11]): 0 | Velvetleaf plant response rating (velvetleaf; [12]): 0 | Plant response rating, Velvetleaf (velvetleaf; [13]): 0 | Plant response rating, Wheat (wheat; [10]): 0 | Plant response rating, Wheat (wheat; [11]): 20 | Wheat plant response rating (wheat; [12]): 0 | Plant response rating, Wheat (wheat; [13]): 10 | Plant response rating, Corn (corn; [10]): 0 | Plant response rating, Corn (corn; [11]): 0 | Corn plant response rating (corn; [12]): 0 | Plant response rating, Corn (corn; [13]): 0 | Plant response rating, Rice (rice [2]; 250 g ai/ha): 0 | Plant response rating, Sedge, Umbrella (sedge, umbrella [3]; 250 g ai/ha): 0 | Plant response rating, Ducksalad (ducksalad [4]; 250 g ai/ha): 80 | Plant response rating, Barnyardgrass (barnyardgrass [5]; 250 g ai/ha): 60 | Plant response rating, Rice (rice [6]; [14]): 0 | Plant response rating, Rice (rice [6]; 250 g ai/ha, scale 0 to 100): 0 | Plant response rating, Rice (rice [6]; 500 g ai/ha, scale 0 to 100): 0 | Plant response rating, Rice (rice [6]; 1000 g ai/ha, scale 0 to 100): 30 | Plant response rating, Sedge, Umbrella (sedge, umbrella [7]; [14]): 0 | Plant response rating, Sedge, Umbrella (sedge, umbrella [7]; 250 g ai/ha, scale 0 to 100): 0 | Plant response rating, Sedge, Umbrella (sedge, umbrella [7]; 500 g ai/ha, scale 0 to 100): 0 | Plant response rating, Sedge, Umbrella (sedge, umbrella [7]; 1000 g ai/ha, scale 0 to 100): 0 | Plant response rating, Ducksalad (ducksalad [8]; [14]): 75 | Plant response rating, Ducksalad (ducksalad [8]; 250 g ai/ha, scale 0 to 100): 95 | Plant response rating, Ducksalad (ducksalad [8]; 500 g ai/ha, scale 0 to 100): 100 | Plant response rating, Ducksalad (ducksalad [8]; 1000 g ai/ha, scale 0 to 100): 100 | Plant response rating, Barnyardgrass (barnyardgrass [9]; [14]): 0 | Plant response rating, Barnyardgrass (barnyardgrass [9]; 250 g ai/ha, scale 0 to 100): 0 | Plant response rating, Barnyardgrass (barnyardgrass [9]; 500 g ai/ha, scale 0 to 100): 25 | Plant response rating, Barnyardgrass (barnyardgrass [9]; 1000 g ai/ha, scale 0 to 100): 40

CC(C)(C)c1cccc(C2CNC(=O)C2C(=O)Nc2cccc(F)c2F)c1 (racemic) [Compound 200]
Plant response rating, Barnyardgrass (barnyardgrass [1]; [15]): 60 | Plant response rating, Barnyardgrass (barnyardgrass [1]; [16]): 70 | Barnyardgrass plant response rating (0 to 100 scale, 0 is no effect, 100 is complete control) (barnyardgrass [1]; Postemergence, 500 g ai/ha): 90 | Plant response rating, Barnyardgrass (barnyardgrass [1]; [17]): 90 | Plant response rating, Kochia (kochia; [18]): 0 | Plant response rating, Kochia (kochia; [19]): 0 | Kochia plant response rating (0 to 100 scale, 0 is no effect, 100 is complete control) (kochia; Postemergence, 500 g ai/ha): 0 | Plant response rating, Kochia (kochia; [20]): 0 | Plant response rating, Ragweed (ragweed; [18]): 0 | Plant response rating, Ragweed (ragweed; [19]): 0 | Ragweed plant response rating (0 to 100 scale, 0 is no effect, 100 is complete control) (ragweed; Postemergence, 500 g ai/ha): 0 | Plant response rating, Ragweed (ragweed; [20]): 0 | Plant response rating, Ryegrass, Italian (ryegrass, Italian; [18]): 0 | Plant response rating, Ryegrass, Italian (ryegrass, Italian; [19]): 0 | Ryegrass, Italian plant response rating (0 to 100 scale, 0 is no effect, 100 is complete control) (ryegrass, Italian; Postemergence, 500 g ai/ha): 0 | Plant response rating, Ryegrass, Italian (ryegrass, Italian; [20]): 0 | Plant response rating, Foxtail, Giant (giant foxtail; [15]): 30 | Plant response rating, Foxtail, Giant (giant foxtail; [16]): 20 | Foxtail, Giant plant response rating (0 to 100 scale, 0 is no effect, 100 is complete control) (giant foxtail; Postemergence, 500 g ai/ha): 40 | Plant response rating, Foxtail, Giant (giant foxtail; [17]): 80 | Plant response rating, Pigweed (pigweed; [15]): 0 | Plant response rating, Pigweed (pigweed; [16]): 0 | Pigweed plant response rating (0 to 100 scale, 0 is no effect, 100 is complete control) (pigweed; Postemergence, 500 g ai/ha): 0 | Plant response rating, Pigweed (pigweed; [17]): 0 | Plant response rating, Wheat (wheat; [16]): 0 | Wheat plant response rating (0 to 100 scale, 0 is no effect, 100 is complete control) (wheat; Postemergence, 500 g ai/ha): 20 | Plant response rating, Corn (corn; [16]): 0 | Corn plant response rating (0 to 100 scale, 0 is no effect, 100 is complete control) (corn; Postemergence, 500 g ai/ha): 20 | Plant response rating, Blackgrass (blackgrass; [21]): 0 | Blackgrass plant response rating (0 to 100 scale, 0 is no effect, 100 is complete control) (blackgrass; 500 g ai/ha): 0 | Plant response rating, Galium (galium; [21]): 0 | Galium plant response rating (0 to 100 scale, 0 is no effect, 100 is complete control) (galium; 500 g ai/ha): 0 | Plant response rating, Rice (rice [2]; 1000 g ai/ha): 15 | Plant response rating, Sedge, Umbrella (sedge, umbrella [3]; 1000 g ai/ha): 0 | Plant response rating, Ducksalad (ducksalad [4]; 1000 g ai/ha): 95 | Plant response rating, Barnyardgrass (barnyardgrass [5]; 1000 g ai/ha): 85 | Plant response rating, Rice (rice [6]; [14]): 0 | Plant response rating, Rice (rice [6]; [22]): 0 | Plant response rating, Rice (rice [6]; 500 g ai/ha, scale 0 to 100): 0 | Plant response rating, Rice (rice [6]; 1000 g ai/ha, scale 0 to 100): 0 | Plant response rating, Sedge, Umbrella (sedge, umbrella [7]; [14]): 0 | Plant response rating, Sedge, Umbrella (sedge, umbrella [7]; [22]): 0 | Plant response rating, Sedge, Umbrella (sedge, umbrella [7]; 500 g ai/ha, scale 0 to 100): 0 | Plant response rating, Sedge, Umbrella (sedge, umbrella [7]; 1000 g ai/ha, scale 0 to 100): 0 | Plant response rating, Ducksalad (ducksalad [8]; [14]): 70 | Plant response rating, Ducksalad (ducksalad [8]; [22]): 70 | Plant response rating, Ducksalad (ducksalad [8]; 500 g ai/ha, scale 0 to 100): 100 | Plant response rating, Ducksalad (ducksalad [8]; 1000 g ai/ha, scale 0 to 100): 100 | Plant response rating, Barnyardgrass (barnyardgrass [9]; [14]): 15 | Plant response rating, Barnyardgrass (barnyardgrass [9]; [22]): 25 | Plant response rating, Barnyardgrass (barnyardgrass [9]; 500 g ai/ha, scale 0 to 100): 40 | Plant response rating, Barnyardgrass (barnyardgrass [9]; 1000 g ai/ha, scale 0 to 100): 55

From patent US10294202B2, “Pyrrolidinones as herbicides” (FMC Corporation, priority 2013, dated 2019)
